Data on one compound can be found in PMC3409373, “Ellagic acid, a phenolic compound, exerts anti-angiogenesis effects via VEGFR-2 signaling pathway in breast cancer” (Breast Cancer Research and Treatment, 2012).

For this assay, the target named is T1, VEGFR-2 (Homo sapiens, UniProt P35968).
T1 construct: gene KDR
As to the kind of experiment: ELISA-based tyrosine kinase assay with VEGFR-2 (Upstate), poly-Glu-Tyr substrate, Mg2+ and ATP. It counts as biochemical. In general terms: ELISA stands for enzyme-linked immunosorbent assay.

T1 sequence (P35968 20-1356): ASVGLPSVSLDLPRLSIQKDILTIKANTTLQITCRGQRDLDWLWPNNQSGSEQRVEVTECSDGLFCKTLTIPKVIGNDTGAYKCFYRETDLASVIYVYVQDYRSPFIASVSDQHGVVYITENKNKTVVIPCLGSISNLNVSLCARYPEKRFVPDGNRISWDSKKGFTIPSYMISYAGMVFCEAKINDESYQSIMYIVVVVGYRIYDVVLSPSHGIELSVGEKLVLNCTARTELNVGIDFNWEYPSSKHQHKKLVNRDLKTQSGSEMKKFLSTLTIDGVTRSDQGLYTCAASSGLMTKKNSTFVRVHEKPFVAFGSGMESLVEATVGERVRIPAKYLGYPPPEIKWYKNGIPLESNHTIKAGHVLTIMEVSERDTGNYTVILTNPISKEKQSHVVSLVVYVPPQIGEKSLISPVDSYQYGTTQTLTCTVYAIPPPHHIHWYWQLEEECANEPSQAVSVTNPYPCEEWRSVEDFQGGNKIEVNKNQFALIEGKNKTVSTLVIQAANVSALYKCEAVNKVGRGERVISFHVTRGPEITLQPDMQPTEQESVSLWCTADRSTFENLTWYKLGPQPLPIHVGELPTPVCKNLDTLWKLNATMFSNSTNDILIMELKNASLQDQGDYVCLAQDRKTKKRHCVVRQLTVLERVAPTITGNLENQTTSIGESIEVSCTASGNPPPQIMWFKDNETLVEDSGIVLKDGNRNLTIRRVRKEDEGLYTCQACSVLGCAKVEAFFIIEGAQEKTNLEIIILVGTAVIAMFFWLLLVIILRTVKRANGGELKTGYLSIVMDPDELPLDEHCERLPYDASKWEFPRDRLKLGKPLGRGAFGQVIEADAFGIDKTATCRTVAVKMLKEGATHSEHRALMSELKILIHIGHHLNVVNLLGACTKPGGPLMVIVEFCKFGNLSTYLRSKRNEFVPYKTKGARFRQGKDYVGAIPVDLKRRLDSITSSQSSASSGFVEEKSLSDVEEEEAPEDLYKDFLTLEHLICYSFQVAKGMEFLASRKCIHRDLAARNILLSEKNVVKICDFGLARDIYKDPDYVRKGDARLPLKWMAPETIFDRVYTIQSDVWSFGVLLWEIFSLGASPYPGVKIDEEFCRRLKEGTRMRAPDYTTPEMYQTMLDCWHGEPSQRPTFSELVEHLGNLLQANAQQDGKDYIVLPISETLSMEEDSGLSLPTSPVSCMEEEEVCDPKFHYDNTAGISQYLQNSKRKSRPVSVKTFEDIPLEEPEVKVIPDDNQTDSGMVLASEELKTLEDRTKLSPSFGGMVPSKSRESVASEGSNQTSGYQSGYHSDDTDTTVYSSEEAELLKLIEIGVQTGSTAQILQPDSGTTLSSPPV

In general, IC50 refers to the concentration at which inhibition is half-maximal. A high value points to weaker potency. Compound `O=c1oc2c(O)c(O)cc3c(=O)oc4c(O)c(O)cc1c4c23` [ellagic acid, 4,4′,5,5′6, 6′-hexahydroxydiphenic acid 2,6,2′6′-dilactone] yielded a half-inhibitory concentration (IC50) of around 25.8 nM.
